The values below come from patent US7671035B2, “Epidermal growth factor receptor antisense oligonucleotides” (Idera Pharmaceuticals, Inc., priority 2001, dated 2010).

In the oligonucleotide strings, read from the 5' end, every base follows the letter of its sugar. An asterisk marks phosphorothioate; unmarked linkages are phosphodiester. Other units and linkages are bracketed, terminal groups are in braces. A string of capitals states the bases alone. d = 2'-deoxy (DNA)

The test system of data set [1] is human GEO colon cancer cells. In words: Soft agar (anchorage-independent) colony growth of GEO cells. As to conditions: read-out: IC50, inhibition of GEO cell soft agar growth. It is filed as cell-based. The method, then:
Antisense oligonucleotides having SEQ ID NOS: 1-10 were designed and evaluated for the ability to inhibit the anchorage-independent growth of human GEO colon cancer cells. Human cancer cells useful for this study are GEO cells.
The IC50 determined by treatment with these antisense oligonucleotides varied between 0.1 and 0.7 μM. Based on the nucleotide sequence and on the growth inhibitory activity, two sequences (corresponding to AS14 (SEQ 10 NO: 14) and AS22 (SEQ ID NO: 22)) were modified in their backbone structure as hybrid DNA-RNA 20-mer oligonucleotides (AS23 (SEQ ID NO: 23)) and AS24 (SEQ ID NO: 24)) and further characterized for their biological characteristics. GEO cells were grown as colonies in soft agar and treated with different concentrations of the indicated antisense oligonucleotides. IC50 values were obtained from three different experiments, each performed in triplicate.
GEO human colon cancer, OVCAR-3 human ovarian cancer, and ZR-75-1 human breast cancer cell lines were obtained from the American Type Culture Collection, Manassas, Va. (OVCAR, ATCC No. HTB-161; ZR-75-1, ATCC No. CRL-1500). […]
Cells (10^4 cells/well) were suspended in 0.5 ml of 0.3% Difco Noble agar (Difco, Detroit, Mich.) supplemented with complete culture medium. […] After 10 to 14 days, cells were stained with nitro blue tetrazolium (Sigma, St. Louis, Mo.) and colonies larger than 0.05 mm were counted.

In data set [2] the test system is p27. Kind of data set: Western blot of p27 expression in ZR-75-1 cells. It is filed as cell-based, human. The settings on record: three days, 0.1 and 0.5 μM (FIG. 3B). Here is the method: (§1) Equal amounts (50 μg/lane) of protein extracts were resolved by a 12% SDS-PAGE and probed with an anti-human p27 MAb. Immunoreactive proteins were visualized by enhanced chemiluminescence.
(§2) The ability of EGFR antisense treatment to induce p27 was therefore examined.
(§3) 50 μg total cell lysates from GEO cells, which were treated each day for three days with the indicated concentrations of antisense oligonucleotides, were fractionated through 7.5% or 12% sodium dodecyl sulfate-polyacrylamide gels, transferred to nitrocellulose filters and incubated with an anti-human EGFR mouse MAb or with an anti-human p27 mouse MAb (both antibodies were purchased from Transduction Laboratories, Lexington, Ky.), respectively, followed by horseradish-peroxidase antiserum (Bio-Rad Laboratories, Milano, Italy). Immunoreactive proteins were visualized by enhanced chemiluminescence (Amersham International, England).

The subject of data set [3] is GEO cells. Kind of data set: Soft agar growth of GEO cells, antisense MBO in combination with cytotoxic drugs. It is filed as cell-based, human. The settings on record: for growth inhibitory effect in combination with cytotoxic drugs: GEO cells on soft agar, all doses, with each of cisplatin, doxorubicin, paclitaxel, topotecan (FIGS. 5, 6); for growth inhibition: soft agar. The method, then:
FIG. 5A is a graphic representation showing the growth inhibitory effects of AS23 (0.01 μM, […], 0.1 μM) in combination with cisplatin on the growth of CEO cells in soft agar. Cells were treated with the indicated concentrations of cytotoxic drug on day 1, followed by the indicated concentrations of EGFR-AS oligonucleotide on each day from day 2 to day 4. Colonies were counted after 10 to 14 days. Data represent the average (±standard deviation) of three different experiments, each performed in triplicate.
The invention also provides a method of potentiating the growth inhibitory effect of a cytotoxin on a cancer cell. In this method, the cell is contacted with an oligonucleotide of the invention, as well as the cytotoxin. For example, the growth inhibitory effects of AS23 and AS24 on cancer cells were examined in combination with four different cytotoxins: cisplatin, doxorubicin, paclitaxel, and topotecan. […] When lower doses of these agents were used, the antiproliferative effect was clearly cooperative. […] The cooperativity quotient of this treatment, defined as the ratio between the actual growth inhibition obtained with cisplatin followed by AS23 MBO and the sum of the growth inhibition achieved by each agent, was approximately 1.8.
Cells (10^4 cells/well) were suspended in 0.5 ml of 0.3% Difco Noble agar (Difco, Detroit, Mich.) supplemented with complete culture medium. This suspension was layered over 0.5 ml of 0.8% agar-medium base layer in 24 multiwell cluster dishes (Becton Dickinson, Lincoln Park, N.J.) and treated on days 1, 2 and 3 with different concentrations of the various EGFR-AS oligonucleotides alone and/or in combination on day 1 with the indicated concentrations of cytotoxic drugs. After 10 to 14 days, cells were stained with nitro blue tetrazolium (Sigma, St. Louis, Mo.) and colonies larger than 0.05 mm were counted.

Data set [4] deals with p27. Kind of data set: Western blot of p27 expression in GEO cells. It counts as cell-based, human. The settings on record: three days, 0.1 and 0.5 μM (FIG. 3A). The method, then:
as §1, §2, §3

Data set [5] has as its system EGFR. In words: Western blot of EGFR expression in GEO cells. It is filed as cell-based, human. As to conditions: GEO cells treated three days at 0.1 μM or 0.5 μM, compared to scramble oligonucleotide-treated cells (FIG. 1B). Here is the method: FIG. 1A is a representation of a Western blot showing EGFR expression in GEO cancer cells following treatment with EGFR antisense oligonucleotides. GEO cells were treated for three days with 0.5 μM of the indicated oligonucleotides (AS 5, 6, 7, 8, 9, 10), 0.5 μM, or with 0.5 μM scramble sequence oligonucleotides. Equal amounts (50 μg/lane) of protein extracts were resolved by a 7.5% SDS-PAGE and probed with an anti-human EGFR monoclonal antibody. Immunoreactive proteins were visualized by enhanced chemiluminescence.
FIG. 1B is a representation of a Western blot showing EGFR expression in CEO cells following treatment with EGFR antisense oligonucleotides. GEO cells were treated for three days with AS23 and AS24 oligonucleotides (0.1 or 0.5 μM), respectively; or with 0.5 μM of scramble sequence oligonucleotides. Equal amounts (50 μg/lane) of protein extracts were resolved by a 7.5% SDS-PAGE and probed with an anti-human EGFR monoclonal antibody. Immunoreactive proteins were visualized by enhanced chemiluminescence. […]

On to “CTCTTCTTGACAGTCTGATG (antisense dC*dT*dC*dT*dT*dC*dT*dT*dG*dA*dC*dA*dG*dT*dC*dT*dG*dA*dT*dG) [AS10]”, for which, in data set [1], the IC50 was about 500 nM.
As to “UAUGATCTGTCACAGCUUGA (phosphorothioate linkages, 2'-O-methyl ribonucleosides, further chemistry not given here) [AS23]”, the “p27 expression (Western blot)” value in data set [2] and in data set [4] was “dose-dependent increase in p27 expression” each time. The “growth inhibitory effect in combination with cytotoxic drugs” value in data set [3] is reported as “supra-additive growth inhibitory effect”. Moreover, in data set [3] (GEO cells, 0.05 μM AS23 MBO alone), the growth inhibition result is recorded as “approximately 20%”. In addition, in data set [3] (GEO cells, combined treatment 0.25 μg/ml cisplatin followed by 0.05 μM AS23 MBO (FIG. 5A)), the “inhibition of colony formation in soft agar” value turned out to be 70%. For the same molecule, the cooperativity quotient entry in data set [3] (ratio of growth inhibition with cisplatin followed by AS23 MBO to the sum of growth inhibition by each agent, GEO cells) was “approximately 1.8”. The “EGFR protein expression (Western blot)” value in data set [5] was “almost complete inhibition”.
In the case of `N.N.[Cl][Pt][Cl]` [cisplatin, CIS-diamminedichloroplatinum, reference compound], in data set [3] (GEO cells, 0.25 μg/ml cisplatin alone), the growth inhibition result was “approximately 20%”.
With “ACACTGCCTGAGAGTTGCCC (antisense dA*dC*dA*dC*dT*dG*dC*dC*dT*dG*dA*dG*dA*dG*dT*dT*dG*dC*dC*dC) [AS1]”, the IC50 in data set [1] is about 3500 nM.
“UGCTAGGTTTCCTCCCUUUC (phosphorothioate linkages, 2'-O-methyl ribonucleosides, further chemistry not given here) [AS24]”: in data set [3], the “growth inhibitory effect in combination with cytotoxic drugs” value was “supra-additive growth inhibitory effect”. For the same molecule, in data set [5], the “EGFR protein expression (Western blot)” value is “almost complete inhibition”.
